# Measurements from ChEMBL document CHEMBL1141709, “Optimization of small molecule agonists of the thrombopoietin (Tpo) receptor derived from a benzo[a]carbazole hit scaffold” (Bioorg Med Chem Lett, 2008).
# Key:
# Thrombopoietin receptor = target: T1, Thrombopoietin receptor (Homo sapiens, UniProt P40238); experiment: Agonist activity at human thrombopoietin receptor expressed in mouse Ba/F3 cells by kinase activation based reporter gene assay; assay type: functional, cell-based, BaF3
# T1 sequence (P40238 whole entry): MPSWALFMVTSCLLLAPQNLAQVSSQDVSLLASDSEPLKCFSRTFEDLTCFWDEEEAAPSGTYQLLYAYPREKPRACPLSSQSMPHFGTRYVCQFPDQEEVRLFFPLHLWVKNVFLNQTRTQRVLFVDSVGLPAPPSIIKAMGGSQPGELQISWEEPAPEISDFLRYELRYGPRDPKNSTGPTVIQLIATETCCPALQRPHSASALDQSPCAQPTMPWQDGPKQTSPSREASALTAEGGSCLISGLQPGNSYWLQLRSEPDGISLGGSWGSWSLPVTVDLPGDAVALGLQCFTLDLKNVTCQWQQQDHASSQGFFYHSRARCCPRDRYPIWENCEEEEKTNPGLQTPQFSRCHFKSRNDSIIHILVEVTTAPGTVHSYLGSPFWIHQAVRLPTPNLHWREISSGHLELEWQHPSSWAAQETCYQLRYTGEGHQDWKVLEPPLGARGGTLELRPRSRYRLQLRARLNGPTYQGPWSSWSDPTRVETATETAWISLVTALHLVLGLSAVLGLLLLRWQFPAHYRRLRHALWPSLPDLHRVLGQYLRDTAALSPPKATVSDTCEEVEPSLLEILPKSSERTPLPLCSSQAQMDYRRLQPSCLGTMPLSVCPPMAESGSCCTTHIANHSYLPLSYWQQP
# [1] = target: T2, Thrombopoietin receptor (Homo sapiens) (UniProt P40238); experiment: Agonist activity at human thrombopoietin receptor expressed in mouse Ba/F3 cells by kinase activation based reporter gene assay relative to 30 ng/mL thrombopoietin; assay type: functional, cell-based; details: BaF3
# T2 sequence (whole entry): T1 sequence (P40238 whole entry)
# [2] = target: T2, Thrombopoietin receptor (Homo sapiens); experiment: Agonist activity at human thrombopoietin receptor expressed in mouse Ba/F3 cells in presence of 1 mM Zinc by kinase activation based reporter gene assay; assay type: functional, cell-based; details: BaF3
# [3] = target: T2, Thrombopoietin receptor (Homo sapiens); experiment: Agonist activity at human thrombopoietin receptor expressed in mouse Ba/F3 cells in presence of 1 mM Zinc by kinase activation based reporter gene assay relative to 30 ng/mL thrombopoietin; assay type: functional, cell-based; details: BaF3
# [4] = Thrombopoietic activity in human megakaryocytes assessed as induction of cell differentiation by CFU-mega assay; assay type: functional, cell-based
EC50 (Thrombopoietin receptor) [nM],Efficacy [1] [%],EC50 [2] [nM],Efficacy [3] [%],EC50 [4] [nM],Compound
21,110,,,,CCCCc1ccc(-c2ccc3c4c([nH]c3c2F)-c2ccc(NC(=O)C(=O)O)cc2C4)cc1
,,166,95,,CCCCc1ccc(-c2ccc3c4c([nH]c3c2F)-c2ccc(NS(C)(=O)=O)cc2C4)cc1
111,118,,,,CCCCc1ccc(-c2ccc3c4c([nH]c3c2F)-c2ccc(C(=O)O)cc2C4(C)C)cc1
26,144,,,,Cc1cc(-c2ccc3c4c([nH]c3c2F)-c2ccc(C(=O)O)cc2C4)ccc1F
160,91,,,,CCCCc1ccc(-c2ccc3c4c([nH]c3c2)-c2ccc(C(=O)O)cc2C4)cc1
,,124,128,,CCCCc1ccc(-c2ccc3c4c([nH]c3c2F)-c2ccc(NC(N)=O)cc2C4)cc1
51,141,,,,CCCCc1ccc(-c2ccc3cc(-c4ccc(C(=O)O)c(O)c4)[nH]c3c2F)cc1
376,90,,,,CCCCc1ccc(-c2ccc3c4c([nH]c3c2F)-c2cc(NC(C)=O)c(C(=O)O)cc2C4)cc1
1430,83,,,,Cc1cc(-c2ccc3c4c([nH]c3c2F)-c2ccc(C(N)=O)cc2OC4)ccc1F
117,112,,,,CCCCc1ccc(-c2ccc3cc(-c4ccc(C(=O)O)cc4)[nH]c3c2F)cc1
1260,83,,,,CCCCc1ccc(-c2ccc3nc(-c4ccc(C(=O)O)cc4)[nH]c3c2)cc1
277,105,,,,Cc1cc(-c2ccc3c4c([nH]c3c2F)-c2ccc(C(N)=O)cc2C4)ccc1F
> 1000,70,,,,CCCCc1ccc(-c2ccc3c(C(C)C)c(-c4ccc(C(=O)O)c(O)c4)[nH]c3c2F)cc1
38,127,,,,CC1=NN(c2ccc(C)c(C)c2)C(=O)/C1=N\Nc1cccc(-c2cccc(C(=O)O)c2)c1O [ELTROMBOPAG]
160,81,,,,CCCCc1ccc(-c2ccc3cc(-c4ccc(C(N)=O)cc4)[nH]c3c2F)cc1
,,341,70,,CCCCc1ccc(-c2ccc3c4c([nH]c3c2F)-c2cc(N)c(C(=O)O)cc2C4)cc1
37,151,,,,CCCCc1ccc(-c2ccc3c4c([nH]c3c2F)-c2ccc(C(=O)O)cc2C4)cc1
86,118,,,,CCCCc1ccc(-c2ccc3c4c([nH]c3c2)-c2ccc(C(N)=O)cc2C4)cc1
111,,,,,CCCCc1ccc(-c2ccc3c4c([nH]c3c2)-c2ccc(C(=O)O)cc2CC4)cc1
> 30000,0,,,,Cc1cc(-c2ccc3c4c([nH]c3c2F)-c2ccc(C(N)=O)cc2COC4=O)ccc1F
,,87,98,,CCCCc1ccc(-c2ccc3c4c([nH]c3c2F)-c2ccc(NC(=O)CO)cc2C4)cc1
228,97,,,,CCCCc1ccc(-c2ccc3c(CC)c(-c4ccc(C(=O)O)c(O)c4)[nH]c3c2F)cc1
449,115,,,,CCCCc1ccc(-c2ccc3c4c([nH]c3c2)-c2ccc(C(=O)O)cc2S(=O)(=O)C4)cc1
,,332,71,,CCCCc1ccc(-c2ccc3c4c([nH]c3c2)-c2ccc(C(=O)O)cc2CCC4)cc1
179,121,,,,CCCCc1ccc(-c2ccc3nc(-c4ccc(C(=O)O)c(O)c4)[nH]c3c2)cc1
25,117,,,300,CCCCc1ccc(-c2ccc3c4c([nH]c3c2F)-c2ccc(NC(C)=O)cc2C4)cc1
116,119,,,,CCCCc1ccc(-c2ccc3c(C)c(-c4ccc(C(=O)O)c(O)c4)[nH]c3c2F)cc1
